Assay in all cases: relative viability (nuclei count vs DMSO), 5 days (fraction); higher = more cells survive
Compound in the assay “BI-D1870 + Dasatinib”: CC(C)CCN1c2nc(Nc3cc(F)c(O)c(F)c3)ncc2N(C)C(=O)C1C [BI-D1870] + Cc1nc(Nc2ncc(C(=O)Nc3c(C)cccc3Cl)s2)cc(N2CCN(CCO)CC2)n1 [Dasatinib] (partner 0.075 µM)
An outline of the steps: (§1)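 Cells from lung cancer lines were seeded into 1536-well plates and, one day later, dosed by pin tool. Treatments were either a single drug or a fixed dose of an anchor drug with five library-drug doses (not always all listed) in √10 steps. After 5 days, nuclei were stained in a one-step fixation (final 0.05% Triton X-100, 1% formaldehyde, 1 ug/ml Hoechst) and counted on 4× images, and relative viability is the treated-to-vehicle nuclei ratio, as the median of duplicate plates.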

Compound in the assay “Zebularine + Bortezomib”: O=c1ncccn1[C@@H]1O[C@H](CO)[C@@H](O)[C@H]1O [Zebularine] + CC(C)C[C@H](NC(=O)[C@H](Cc1ccccc1)NC(=O)c1cnccn1)B(O)O [Bortezomib] (partner 0.002 µM)
An outline of the steps:
as §1

Compound in the assay “Zebularine + Tozasertib”: O=c1ncccn1[C@@H]1O[C@H](CO)[C@@H](O)[C@H]1O [Zebularine] + Cc1cc(Nc2cc(N3CCN(C)CC3)nc(Sc3ccc(NC(=O)C4CC4)cc3)n2)n[nH]1 [Tozasertib] (partner 0.1 µM)
The essentials:
as §1

Compound in the assay “Zebularine + Pemetrexed”: O=c1ncccn1[C@@H]1O[C@H](CO)[C@@H](O)[C@H]1O [Zebularine] + Nc1nc2[nH]cc(CCc3ccc(C(=O)N[C@@H](CCC(=O)O)C(=O)O)cc3)c2c(=O)[nH]1 [Pemetrexed] (partner 0.2 µM)
An outline of the steps:
as §1

For the cell line NCI-H3122, the relative viability in the assay with BI-D1870 + Dasatinib (first compound 0.04 µM) was determined as 0.845; in the assay with BI-D1870 + Dasatinib (first compound 0.1265 µM), 0.744; with BI-D1870 + Dasatinib (first compound 0.4 µM) it was 0.834; with BI-D1870 + Dasatinib (first compound 1.265 µM), 0.955; in the assay with BI-D1870 + Dasatinib (first compound 4 µM), 0.92; in the assay with Zebularine + Bortezomib (first compound 1 µM) it was 1.04. In addition, the relative viability turned out to be 0.991 with Zebularine + Bortezomib (first compound 3.162 µM); 1 with Zebularine + Bortezomib (first compound 10 µM); 1.05 with Zebularine + Bortezomib (first compound 31.62 µM); 1.08 in the assay with Zebularine + Bortezomib (first compound 100 µM); 0.391 in the assay with Zebularine + Tozasertib (first compound 1 µM); 0.401 with Zebularine + Tozasertib (first compound 3.162 µM). Further, the relative viability turned out to be 0.262 in the assay with Zebularine + Tozasertib (first compound 10 µM); 0.626 in the assay with Zebularine + Tozasertib (first compound 31.62 µM); 0.375 with Zebularine + Tozasertib (first compound 100 µM); 0.189 with Zebularine + Pemetrexed (first compound 1 µM); 0.183 in the assay with Zebularine + Pemetrexed (first compound 3.162 µM); 0.175 in the assay with Zebularine + Pemetrexed (first compound 10 µM). The relative viability with Zebularine + Pemetrexed (first compound 31.62 µM) and with Zebularine + Pemetrexed (first compound 100 µM) was 0.225 in each case.
PC-3 [JPC-3]: the relative viability amounted to 1 with BI-D1870 + Dasatinib (first compound 0.04 µM); 0.892 with BI-D1870 + Dasatinib (first compound 0.1265 µM); 1.01 with BI-D1870 + Dasatinib (first compound 0.4 µM); 1.12 with BI-D1870 + Dasatinib (first compound 1.265 µM); 0.947 in the assay with BI-D1870 + Dasatinib (first compound 4 µM); 0.912 with Zebularine + Bortezomib (first compound 1 µM). Further, the relative viability with Zebularine + Bortezomib (first compound 3.162 µM) is 0.772; in the assay with Zebularine + Bortezomib (first compound 10 µM), 0.464; with Zebularine + Bortezomib (first compound 31.62 µM), 0.729; with Zebularine + Bortezomib (first compound 100 µM) it was 0.591; in the assay with Zebularine + Tozasertib (first compound 1 µM) it was 0.963; in the assay with Zebularine + Tozasertib (first compound 3.162 µM) it was 0.924. The relative viability with Zebularine + Tozasertib (first compound 10 µM) was found to be 0.485; with Zebularine + Tozasertib (first compound 31.62 µM) it was 0.668; with Zebularine + Tozasertib (first compound 100 µM), 0.473; with Zebularine + Pemetrexed (first compound 1 µM), 1.43; with Zebularine + Pemetrexed (first compound 3.162 µM), 1.06; with Zebularine + Pemetrexed (first compound 10 µM), 1.07. Further, the relative viability in the assay with Zebularine + Pemetrexed (first compound 31.62 µM) was found to be 0.755; in the assay with Zebularine + Pemetrexed (first compound 100 µM), 0.813.
In the case of PC-14, the relative viability with BI-D1870 + Dasatinib (first compound 0.04 µM) worked out at 0.27; with BI-D1870 + Dasatinib (first compound 0.1265 µM), 0.241; in the assay with BI-D1870 + Dasatinib (first compound 0.4 µM), 0.272; with BI-D1870 + Dasatinib (first compound 1.265 µM), 0.239; with BI-D1870 + Dasatinib (first compound 4 µM), 0.259; with Zebularine + Bortezomib (first compound 1 µM) it was 1.05. The relative viability with Zebularine + Bortezomib (first compound 3.162 µM) was determined as 0.743; with Zebularine + Bortezomib (first compound 10 µM), 0.147; with Zebularine + Bortezomib (first compound 31.62 µM), 0.115; with Zebularine + Bortezomib (first compound 100 µM) it was 0.0976; with Zebularine + Tozasertib (first compound 1 µM), 0.479; with Zebularine + Tozasertib (first compound 3.162 µM), 0.513. Moreover, the relative viability with Zebularine + Tozasertib (first compound 10 µM) was determined as 0.1; with Zebularine + Tozasertib (first compound 31.62 µM), 0.0922; in the assay with Zebularine + Tozasertib (first compound 100 µM), 0.0781; in the assay with Zebularine + Pemetrexed (first compound 1 µM) it was 0.136; with Zebularine + Pemetrexed (first compound 3.162 µM), 0.139; in the assay with Zebularine + Pemetrexed (first compound 10 µM), 0.0749. Further, the figures for the relative viability with Zebularine + Pemetrexed (first compound 31.62 µM) and with Zebularine + Pemetrexed (first compound 100 µM) were 0.0697 and 0.0552, respectively.
RERF-LC-KJ: the relative viability worked out at 0.968 with BI-D1870 + Dasatinib (first compound 0.04 µM); 0.72 in the assay with BI-D1870 + Dasatinib (first compound 0.1265 µM); 0.762 with BI-D1870 + Dasatinib (first compound 0.4 µM); 0.814 with BI-D1870 + Dasatinib (first compound 1.265 µM); 0.495 with BI-D1870 + Dasatinib (first compound 4 µM); 1.11 in the assay with Zebularine + Bortezomib (first compound 1 µM). Moreover, the relative viability with Zebularine + Bortezomib (first compound 3.162 µM) was found to be 0.996; with Zebularine + Bortezomib (first compound 10 µM), 0.92; in the assay with Zebularine + Bortezomib (first compound 31.62 µM) it was 1.36; in the assay with Zebularine + Bortezomib (first compound 100 µM) it was 1.25; with Zebularine + Tozasertib (first compound 1 µM) it was 0.533; with Zebularine + Tozasertib (first compound 3.162 µM), 0.433. In addition, the relative viability was determined as 0.458 in the assay with Zebularine + Tozasertib (first compound 10 µM); 0.553 in the assay with Zebularine + Tozasertib (first compound 31.62 µM); 0.473 with Zebularine + Tozasertib (first compound 100 µM); 0.447 with Zebularine + Pemetrexed (first compound 1 µM); 0.505 with Zebularine + Pemetrexed (first compound 3.162 µM); 0.415 with Zebularine + Pemetrexed (first compound 10 µM). For the same cell line, the relative viability amounted to 0.507 with Zebularine + Pemetrexed (first compound 31.62 µM) and 0.443 with Zebularine + Pemetrexed (first compound 100 µM).
In the case of SK-LU-1, the relative viability in the assay with BI-D1870 + Dasatinib (first compound 0.04 µM) came out at 0.18; with BI-D1870 + Dasatinib (first compound 0.1265 µM) it was 0.165; in the assay with BI-D1870 + Dasatinib (first compound 0.4 µM), 0.132; with BI-D1870 + Dasatinib (first compound 1.265 µM) it was 0.229; with BI-D1870 + Dasatinib (first compound 4 µM), 0.153; in the assay with Zebularine + Bortezomib (first compound 1 µM), 1.3. Moreover, the relative viability came out at 0.913 in the assay with Zebularine + Bortezomib (first compound 3.162 µM); 0.576 with Zebularine + Bortezomib (first compound 10 µM); 0.737 with Zebularine + Bortezomib (first compound 31.62 µM); 0.502 with Zebularine + Bortezomib (first compound 100 µM); 0.378 with Zebularine + Tozasertib (first compound 1 µM); 0.34 with Zebularine + Tozasertib (first compound 3.162 µM). Also, the relative viability worked out at 0.254 with Zebularine + Tozasertib (first compound 10 µM); 0.302 with Zebularine + Tozasertib (first compound 31.62 µM); 0.29 with Zebularine + Tozasertib (first compound 100 µM); 1.03 in the assay with Zebularine + Pemetrexed (first compound 1 µM); 0.922 in the assay with Zebularine + Pemetrexed (first compound 3.162 µM); 0.52 with Zebularine + Pemetrexed (first compound 10 µM). The relative viability with Zebularine + Pemetrexed (first compound 31.62 µM) was 0.523; in the assay with Zebularine + Pemetrexed (first compound 100 µM) it was 0.542.
Regarding SW 1573, the relative viability with BI-D1870 + Dasatinib (first compound 0.04 µM) was 0.625; with BI-D1870 + Dasatinib (first compound 0.1265 µM) it was 0.456; with BI-D1870 + Dasatinib (first compound 0.4 µM) it was 0.594; with BI-D1870 + Dasatinib (first compound 1.265 µM), 0.472; in the assay with BI-D1870 + Dasatinib (first compound 4 µM) it was 0.213; with Zebularine + Bortezomib (first compound 1 µM), 1.13. The relative viability with Zebularine + Bortezomib (first compound 3.162 µM) worked out at 0.896; in the assay with Zebularine + Bortezomib (first compound 10 µM) it was 0.78; in the assay with Zebularine + Bortezomib (first compound 31.62 µM) it was 1.07; with Zebularine + Bortezomib (first compound 100 µM), 0.584; with Zebularine + Tozasertib (first compound 1 µM) it was 0.223; in the assay with Zebularine + Tozasertib (first compound 3.162 µM) it was 0.163. The relative viability with Zebularine + Tozasertib (first compound 31.62 µM) was found to be 0.137; with Zebularine + Tozasertib (first compound 100 µM) it was 0.148; in the assay with Zebularine + Pemetrexed (first compound 1 µM), 0.798; in the assay with Zebularine + Pemetrexed (first compound 3.162 µM), 0.854; with Zebularine + Pemetrexed (first compound 31.62 µM), 0.855; with Zebularine + Pemetrexed (first compound 100 µM), 0.522.
